Legend:
corn = assay: Test B pre-/postemergence herbicide test; assay type: in vivo, Zea mays; conditions: for Corn plant response rating: postemergence
Summary of the method: (§1)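 Visual rating, 0 (no effect) to 100 (complete control), versus untreated controls after 13–15 d in greenhouse. Pre- and postemergence applications (postemergence plants 2–18 cm, 1–4 leaves); flooded paddy arm at 2-leaf stage. Compounds in non-phytotoxic solvent plus surfactant.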

Surinam grass = assay: Test B pre-/postemergence herbicide test; assay type: in vivo, Urochloa decumbens; conditions: for Surinam Grass plant response rating: postemergence
Summary of the method: as §1

barnyardgrass [1] = assay: Test B pre-/postemergence herbicide test; assay type: in vivo, Echinochloa crus-galli; conditions: for Barnyardgrass plant response rating: postemergence
Summary of the method: (§2)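 Plants compared with untreated controls 13–15 days post-treatment and given a visual 0–100 injury score. Applications: preemergence to seeds; postemergence at 1- to 4-leaf (2–18 cm); paddy species flooded, 2-leaf stage. Vehicle non-phytotoxic, surfactant included.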

ducksalad = assay: Test B flooded paddy test; assay type: in vivo, Heteranthera limosa; conditions: 1000 g ai/ha, scale 0 to 100 (0 no effect, 100 complete control)
Summary of the method: (§3)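 Formulated test chemicals went onto postemergence plants measuring 2 to 18 cm, at one to four leaves. For the paddy assay, species had reached two leaves. Scoring took place 13–15 days later by eye, relative to untreated plants, using 0 for no effect up to 100 for full control.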

barnyardgrass [2] = assay: Test B flooded paddy test; assay type: in vivo, Echinochloa crus-galli; conditions: 1000 g ai/ha, scale 0 to 100 (0 no effect, 100 complete control)
Summary of the method: as §3

morningglory = assay: Test B pre-/postemergence herbicide test; assay type: in vivo, Ipomoea coccinea; conditions: for Morningglory plant response rating: postemergence
Summary of the method: as §2

[3] = tested on: small flower umbrella sedge; assay: Test B flooded paddy test; assay type: in vivo, Cyperus difformis; conditions: 1000 g ai/ha, scale 0 to 100 (0 no effect, 100 complete control)
Summary of the method: as §3

lambsquarters = assay: Test B pre-/postemergence herbicide test; assay type: in vivo, Chenopodium album; conditions: for Lambsquarters plant response rating: postemergence
Summary of the method: as §1

blackgrass = assay: Test B postemergence herbicide test; assay type: in vivo, Alopecurus myosuroides; conditions: postemergence
Summary of the method: as §3

velvetleaf = assay: Test B pre-/postemergence herbicide test; assay type: in vivo, Abutilon theophrasti; conditions: for Velvetleaf plant response rating: postemergence
Summary of the method: as §1

rice = assay: Test B flooded paddy test; assay type: in vivo, Oryza sativa; conditions: 1000 g ai/ha, scale 0 to 100 (0 no effect, 100 complete control)
Summary of the method: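 Read-out: visual comparison with controls, scored 0 to 100, where 100 means complete control and 0 no effect. Formulated chemicals were applied postemergence to plants 2–18 cm tall (1- to 4-leaf), or to flooded-paddy plants at the 2-leaf stage, then held 13 to 15 days under glass.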

large crabgrass = assay: Test B pre-/postemergence herbicide test; assay type: in vivo, Digitaria sanguinalis; conditions: for Crabgrass, Large plant response rating: postemergence
Summary of the method: as §1

wheat = assay: Test B postemergence herbicide test; assay type: in vivo, Triticum aestivum; parameters: key to Wheat plant response rating: 0 = no effect, 100 = complete control; conditions: postemergence
Summary of the method: (§4)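 After treating 2-leaf paddy plants or 2–18 cm postemergence plants (1 to 4 leaves) with formulated chemical, researchers kept them in a greenhouse for 13–15 days. Effects were judged visually versus controls: 0 indicates none, 100 total control.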

cocklebur = assay: Test B pre-/postemergence herbicide test; assay type: in vivo, Xanthium strumarium; conditions: for Cocklebur plant response rating: postemergence
Summary of the method: as §2

wild oat = assay: Test B postemergence herbicide test; assay type: in vivo, Avena fatua; conditions: postemergence
Summary of the method: as §4

[4] = 125 g ai/ha, 0 = no effect, 100 = complete control, preemergence
[5] = 125 g ai/ha, visual rating, scale 0 (no effect) to 100 (complete control)
[6] = 500 g ai/ha, visual rating, 0 = no effect, 100 = complete control, preemergence
[7] = 500 g ai/ha, scale 0 to 100, 0 is no effect, 100 is complete control

Structure (SMILES): CCn1nc(C2(C)CC2)cc1C(=O)Nc1cc(C(=O)N2CC=CC2)ccc1F [Compound 301]
- Corn plant response rating (0 to 100 scale) (corn; [4]): 0
- Corn plant response rating (corn; [5]): 50
- Plant response rating, Corn (corn; [6]): 10
- Corn plant response rating (corn; [7]): 50
- Surinam Grass plant response rating (0 to 100 scale) (Surinam grass; [4]): 90
- Surinam Grass plant response rating (Surinam grass; [5]): 10
- Plant response rating, Surinam Grass (Surinam grass; [6]): 100
- Surinam Grass plant response rating (Surinam grass; [7]): 30
- Barnyardgrass plant response rating (0 to 100 scale) (barnyardgrass [1]; [4]): 60
- Barnyardgrass plant response rating (barnyardgrass [1]; [5]): 20
- Plant response rating, Barnyardgrass (barnyardgrass [1]; [6]): 100
- Barnyardgrass plant response rating (barnyardgrass [1]; [7]): 60
- Ducksalad plant response rating (ducksalad): 90
- Barnyardgrass plant response rating (barnyardgrass [2]): 90
- Morningglory plant response rating (0 to 100 scale) (morningglory; [4]): 10
- Morningglory plant response rating (morningglory; [5]): 60
- Plant response rating, Morningglory (morningglory; [6]): 80
- Morningglory plant response rating (morningglory; [7]): 90
- Sedge, Umbrella plant response rating [3]: 90
- Lambsquarters plant response rating (0 to 100 scale) (lambsquarters; [4]): 100
- Lambsquarters plant response rating (lambsquarters; [5]): 70
- Plant response rating, Lambsquarters (lambsquarters; [6]): 100
- Lambsquarters plant response rating (lambsquarters; [7]): 80
- Blackgrass plant response rating (blackgrass; [5]): 10
- Blackgrass plant response rating (blackgrass; [7]): 40
- Velvetleaf plant response rating (velvetleaf; [5]): 30
- Plant response rating, Velvetleaf (velvetleaf; [6]): 100
- Velvetleaf plant response rating (velvetleaf; [7]): 100
- Rice plant response rating (rice): 90
- Crabgrass, Large plant response rating (0 to 100 scale) (large crabgrass; [4]): 100
- Crabgrass, Large plant response rating (large crabgrass; [5]): 20
- Plant response rating, Crabgrass, Large (large crabgrass; [6]): 100
- Crabgrass, Large plant response rating (large crabgrass; [7]): 60
- Wheat plant response rating (wheat; [5]): 10
- Wheat plant response rating (wheat; [7]): 20
- Cocklebur plant response rating (0 to 100 scale) (cocklebur; [4]): 0
- Cocklebur plant response rating (cocklebur; [5]): 10
- Plant response rating, Cocklebur (cocklebur; [6]): 0
- Cocklebur plant response rating (cocklebur; [7]): 50
- Oat, Wild plant response rating (wild oat; [5]): 20
- Oat, Wild plant response rating (wild oat; [7]): 40

Source: patent publication US20060069132A1, “Azolecarboxamide herbicides” (priority 2004, published 2006)
